Laboratory results published in ChEMBL document CHEMBL1129443, “Inactivation of S-adenosyl-L-homocysteine hydrolase by amide and ester derivatives of adenosine-5'-carboxylic acid” (J Med Chem, 1996).

Columns and labels:
Adenosylhomocysteinase [1] = biological target: T1, Adenosylhomocysteinase (Homo sapiens, UniProt P23526); experiment: Inhibition of S-adenosyl-L-homocysteine hydrolase, inactivation rate constant.
Target sequence in this assay (P23526 whole entry): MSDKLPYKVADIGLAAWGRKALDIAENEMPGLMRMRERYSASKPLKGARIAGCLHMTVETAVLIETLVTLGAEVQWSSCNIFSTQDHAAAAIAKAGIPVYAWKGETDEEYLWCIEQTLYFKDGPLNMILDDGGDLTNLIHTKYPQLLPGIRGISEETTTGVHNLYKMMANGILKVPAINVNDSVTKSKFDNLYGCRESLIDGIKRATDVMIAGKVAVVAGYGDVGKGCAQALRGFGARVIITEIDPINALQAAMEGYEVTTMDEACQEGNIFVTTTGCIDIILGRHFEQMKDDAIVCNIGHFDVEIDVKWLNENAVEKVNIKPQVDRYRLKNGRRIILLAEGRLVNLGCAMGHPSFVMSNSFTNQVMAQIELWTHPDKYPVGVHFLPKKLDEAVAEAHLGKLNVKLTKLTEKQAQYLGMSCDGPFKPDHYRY

Adenosylhomocysteinase [2] = biological target: T1, Adenosylhomocysteinase
Target sequence in this assay (P23526 2-432 limits assumed): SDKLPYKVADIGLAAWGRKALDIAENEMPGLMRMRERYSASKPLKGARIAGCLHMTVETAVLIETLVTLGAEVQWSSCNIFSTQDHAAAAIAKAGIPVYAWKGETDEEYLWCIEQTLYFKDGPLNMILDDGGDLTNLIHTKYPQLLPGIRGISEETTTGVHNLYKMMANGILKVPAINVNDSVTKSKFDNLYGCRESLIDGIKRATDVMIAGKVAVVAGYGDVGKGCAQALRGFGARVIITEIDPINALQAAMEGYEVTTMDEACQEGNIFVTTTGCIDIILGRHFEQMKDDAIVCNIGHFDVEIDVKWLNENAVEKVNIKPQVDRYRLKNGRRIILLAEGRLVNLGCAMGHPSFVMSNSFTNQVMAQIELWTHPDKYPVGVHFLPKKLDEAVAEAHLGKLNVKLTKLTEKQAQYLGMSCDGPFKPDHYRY
Description: Inhibition of S-adenosyl-L-homocysteine hydrolase, dissociation constant.

SMILES | Ki (Adenosylhomocysteinase [1]) [nM] | K2 (Adenosylhomocysteinase [2]) [min⁻¹]
COC(=O)[C@H]1O[C@@H](n2cnc3c(N)ncnc32)[C@H](O)[C@@H]1O | 1700 | 0.78
CC(C)COC(=O)[C@H]1OC(n2cnc3c(N)ncnc32)[C@H](O)[C@@H]1O (stereo partly drawn) | 570 | 0.077
Nc1ncnc2c1ncn2C1O[C@H](C(=O)NCc2ccccc2)[C@@H](O)[C@H]1O (stereo partly drawn) | 43400 | 0.03
CCCCOC(=O)[C@H]1OC(n2cnc3c(N)ncnc32)[C@H](O)[C@@H]1O (stereo partly drawn) | 710 | 0.11
Nc1ncnc2c1ncn2[C@@H]1O[C@H](C=O)[C@@H](O)[C@H]1O | 39 | 0.65
CCCCNC(=O)[C@H]1OC(n2cnc3c(N)ncnc32)[C@H](O)[C@@H]1O (stereo partly drawn) | 19800 | 0.03
Nc1ncnc2c1ncn2C1O[C@H](C(=O)OCc2ccccc2)[C@@H](O)[C@H]1O (stereo partly drawn) | 360 | 0.017
Nc1ncnc2c1ncn2C1O[C@H](C(=O)OCCCl)[C@@H](O)[C@H]1O (stereo partly drawn) | 320 | 0.35
CC(C)OC(=O)[C@H]1OC(n2cnc3c(N)ncnc32)[C@H](O)[C@@H]1O (stereo partly drawn) | 770 | 0.064
Nc1ncnc2c1ncn2C1O[C@H](C(=O)Nc2ccccc2)[C@@H](O)[C@H]1O (stereo partly drawn) | 48500 | 0.028
NC(=O)[C@H]1OC(n2cnc3c(N)ncnc32)[C@H](O)[C@@H]1O (stereo partly drawn) | 2600 | 0.1
CCN(CC)C(=O)[C@H]1OC(n2cnc3c(N)ncnc32)[C@H](O)[C@@H]1O (stereo partly drawn) | 570 | 0.05
Nc1ncnc2c1ncn2[C@@H]1O[C@H](C(=O)O)[C@@H](O)[C@H]1O [5'-CARBOXY ADENOSINE] | 410 | 0.045
CNC(=O)[C@H]1O[C@@H](n2cnc3c(N)ncnc32)[C@H](O)[C@@H]1O | 1930 | 0.095
